Patent US11771671B2, “Use of (1S,3S)-3-amino-4-(difluoromethylidene) cyclopentane-1-carboxylic acid and (S)-3-amino-4-(difluoromethylenyl)cyclopent-1-ene-1-carboxylic acid in the treatment of tinnitus, acute sensorineural hearing loss, Meniere's disease, Tourette's syndrome, attention deficit hyperactivity disorder and …” (Ovid Therapeutics Inc., priority 2018, dated 2023)

Assay: plasma pharmacokinetics
Format: in vivo

AUCs dose proportionality (dose range of 5 mg-500 mg): greater than proportional increase
C. dose proportionality (dose range of 5 mg-500 mg): increases in a dose proportional manner
half-life (plasma, read-out: plasma elimination half-life): 240 to 360 min
Compound: N[C@H]1C[C@@H](C(=O)O)CC1=C(F)F [(1S,3S)-3-amino-4-(difluoromethylidene)cyclopentane-1-carboxylic acid]
